Source: patent US12678488B2, “Batch management method for improving farrowing rate or number of piglets born alive in swine” (priority 2024, dated 2026)
Marks after values point to notes of the source that are not given here.

Test system: Landrace x Large White reserve sows
Assay: Heat detection: estrus rate and estrus time in gilts, different doses (Example 2)
Format: in vivo, pigs
Settings: gilts
Excerpt: Landrace x Large White reserve sows, about 230 days old, were randomly divided into a batch farrowing with FTAI and batch farrowing with FTAI combined with different doses of 1-[bis(4-cyanophenyl)methyl]-1,2,4-triazole groups, and during the experiment, the experimental sows in each group were fed regularly and gained free access to water according to the requirements of feeding management in the farm.
Referring to the dosage of 1-[bis(4-cyanophenyl)methyl]-1,2,4-triazole in clinical medicine and using standard weight-dosage conversion, the recommended dosage of 1-[bis(4-cyanophenyl)methyl]-1,2,4-triazole for sows was 50-150 μg/kg·BW/day, orally for consecutive 5 days, as derived by conversion. In addition, the applicant previously studied uniparous cows, and in the ovulation induction scheme, the reference dosage of 1-[bis(4-cyanophenyl)methyl]-1,2,4-triazole was 60-200 μg/kg·BW, administered in a single dose; furthermore, by means of conversion in conjunction with the dosage for model animals (mice) previously in the laboratory, various dosages were designed. The treatment methods of hormones and drugs for sows in each group were as follows: • batch farrowing with FTAI: the sows were fed with an altrenogest oral solution at 20 mg/animal at the same time every day, for 18 days; PMSG at 1000 IU/animal was injected intramuscularly 42 h after the last feeding with altrenogest, GnRH at 100 μg/animal was injected intramuscularly 80 h after the injection of PMSG, a first timed insemination was performed 24 h after the injection of GnRH, and a second timed insemination was performed 16 h after the first insemination.
(§1) Treatment group 1: the hormone treatment and mating schemes for gilts were the same as FTAI. The difference lay in that PMSG at 1000 IU/gilt was injected intramuscularly 42 h after the last feeding with altrenogest, and 1-[bis(4-cyanophenyl)methyl]-1,2,4-triazole at 12 μg/kg·BW/day was administered orally 8 h after the injection of PMSG, for 1 day.
as §1, with “2:” for “1:”, “2 days.” for “1 day.”
as §1, with “3:” for “1:”, “20” for “12”
as §1, with “4:” for “1:”, “sows” for “gilts”, “1-[bis (4-cyanophenyl)methyl]-1,2,4-triazole” for “1-[bis(4-cyanophenyl)methyl]-1,2,4-triazole”, “20” for “12”, “2 days.” for “1 day.”
as §1, with “5:” for “1:”, “IU/animal” for “IU/gilt”, “20” for “12”, “3 days.” for “1 day.”
as §1, with “6:” for “1:”, “IU/animal” for “IU/gilt”, “20” for “12”, “5 days.” for “1 day.”
Treatment group 7: the hormone treatment and mating schemes for gilts were the same as FTAI. […]

[1] = Example 2 Treatment group 1: 12 μg/kg·BW/day orally, 1 day
[2] = Example 2 Treatment group 2: 12 μg/kg·BW/day orally, 2 days
[3] = Example 2 Treatment group 3: 20 μg/kg·BW/day orally, 1 day
[4] = Example 2 Treatment group 4: 20 μg/kg·BW/day orally, 2 days
[5] = Example 2 Treatment group 5: 20 μg/kg·BW/day orally, 3 days
[6] = Example 2 Treatment group 6: 20 μg/kg·BW/day orally, 5 days
[7] = Example 2 Treatment group 7: 40 μg/kg·BW/day orally, 1 day
[8] = Example 2 Treatment group 8: 40 μg/kg·BW/day orally, 5 days
[9] = Example 2 Treatment group 9: 80 μg/kg·BW/day orally, 5 days
[10] = Example 2 Treatment group 10: 160 μg/kg·BW/day orally, 5 days

N#Cc1ccc(C(c2ccc(C#N)cc2)n2cncn2)cc1 [1-[bis(4-cyanophenyl)methyl]-1,2,4-triazole]
Estrus number [1]: 27
Estrus rate (%) [1]: 90.00^a %
Interval from stopping taking Altrenogest to estrus (days) [1]: 6.13 ± 0.12^b days
Estrus number [2]: 23
Estrus rate (%) [2]: 85.19^a %
Interval from stopping taking Altrenogest to estrus (days) [2]: 6.07 ± 0.13^b days
Estrus number [3]: 22
Estrus rate (%) [3]: 88.00^a %
Interval from stopping taking Altrenogest to estrus (days) [3]: 6.11 ± 0.12^b days
Estrus number [4]: 21
Estrus rate (%) [4]: 84.00^a %
Interval from stopping taking Altrenogest to estrus (days) [4]: 6.07 ± 0.15^b days
Estrus number [5]: 24
Estrus rate (%) [5]: 92.31^a %
Interval from stopping taking Altrenogest to estrus (days) [5]: 6.19 ± 0.16^b days
Estrus number [6]: 20
Estrus rate (%) [6]: 76.92^b %
Interval from stopping taking Altrenogest to estrus (days) [6]: 6.70 ± 0.16^a days
Estrus number [7]: 22
Estrus rate (%) [7]: 84.61^a %
Interval from stopping taking Altrenogest to estrus (days) [7]: 6.77 ± 0.14^a days
Estrus number [8]: 4
Estrus rate (%) [8]: 16.67^b %
Interval from stopping taking Altrenogest to estrus (days) [8]: 6.25 ± 0.14^b days
Estrus number [9]: 0
Estrus rate (%) [9]: 0.00^b %
Estrus number [10]: 0
Estrus rate (%) [10]: 0.00^b %
Number of estrous animals at different times after stopping Altrenogest (day/animal) (day 4.5, Example 2 Treatment group 1: 12 μg/kg·BW/day orally, 1 day): 0 animal
Number of estrous animals at different times after stopping Altrenogest (day/animal) (day 4.5, Example 2 Treatment group 2: 12 μg/kg·BW/day orally, 2 days): 0 animal
Number of estrous animals at different times after stopping Altrenogest (day/animal) (day 4.5, Example 2 Treatment group 3: 20 μg/kg·BW/day orally, 1 day): 0 animal
Number of estrous animals at different times after stopping Altrenogest (day/animal) (day 4.5, Example 2 Treatment group 4: 20 μg/kg·BW/day orally, 2 days): 0 animal
Number of estrous animals at different times after stopping Altrenogest (day/animal) (day 4.5, Example 2 Treatment group 5: 20 μg/kg·BW/day orally, 3 days): 0 animal
Number of estrous animals at different times after stopping Altrenogest (day/animal) (day 4.5, Example 2 Treatment group 6: 20 μg/kg·BW/day orally, 5 days): 0 animal
Number of estrous animals at different times after stopping Altrenogest (day/animal) (day 4.5, Example 2 Treatment group 7: 40 μg/kg·BW/day orally, 1 day): 0 animal
Number of estrous animals at different times after stopping Altrenogest (day/animal) (day 4.5, Example 2 Treatment group 8: 40 μg/kg·BW/day orally, 5 days): 0 animal
Number of estrous animals at different times after stopping Altrenogest (day/animal) (day 5, Example 2 Treatment group 1: 12 μg/kg·BW/day orally, 1 day): 1 animal
Number of estrous animals at different times after stopping Altrenogest (day/animal) (day 5, Example 2 Treatment group 2: 12 μg/kg·BW/day orally, 2 days): 0 animal
Number of estrous animals at different times after stopping Altrenogest (day/animal) (day 5, Example 2 Treatment group 3: 20 μg/kg·BW/day orally, 1 day): 0 animal
Number of estrous animals at different times after stopping Altrenogest (day/animal) (day 5, Example 2 Treatment group 4: 20 μg/kg·BW/day orally, 2 days): 0 animal
Number of estrous animals at different times after stopping Altrenogest (day/animal) (day 5, Example 2 Treatment group 5: 20 μg/kg·BW/day orally, 3 days): 2 animal
Number of estrous animals at different times after stopping Altrenogest (day/animal) (day 5, Example 2 Treatment group 6: 20 μg/kg·BW/day orally, 5 days): 1 animal
Number of estrous animals at different times after stopping Altrenogest (day/animal) (day 5, Example 2 Treatment group 7: 40 μg/kg·BW/day orally, 1 day): 0 animal
Number of estrous animals at different times after stopping Altrenogest (day/animal) (day 5, Example 2 Treatment group 8: 40 μg/kg·BW/day orally, 5 days): 0 animal
Number of estrous animals at different times after stopping Altrenogest (day/animal) (day 5.5, Example 2 Treatment group 1: 12 μg/kg·BW/day orally, 1 day): 8 animal
Number of estrous animals at different times after stopping Altrenogest (day/animal) (day 5.5, Example 2 Treatment group 2: 12 μg/kg·BW/day orally, 2 days): 9 animal
Number of estrous animals at different times after stopping Altrenogest (day/animal) (day 5.5, Example 2 Treatment group 3: 20 μg/kg·BW/day orally, 1 day): 7 animal
Number of estrous animals at different times after stopping Altrenogest (day/animal) (day 5.5, Example 2 Treatment group 4: 20 μg/kg·BW/day orally, 2 days): 8 animal
